Assay results published in US20160223554A1, “METHODS FOR DIAGNOSIS, PROGNOSIS AND METHODS OF TREATMENT” (priority 2011, published 2016).
Read-outs that look alike come from different tables or passages of the source.

Experiments:
[1] = test system: AML blasts; assay: DNA damage response (p-H2AX, p-Chk2) to chemotherapeutics in primary AML samples (Example 20); type: cell-based, human; conditions: for timing of induced DNA damage (pH2AX) relative to apoptosis: primary AML samples; for DDR: pH2AX, 48 hour treatment
Procedure: (§1) Cryopreserved peripheral blood (PBMC) or bone marrow (BMMC) mononuclear cells were obtained from patients with a new diagnosis of AML treated at British Columbia Cancer Agency or Lucile Packard Children's Hospital at Stanford University. All patients provided informed consent for research purposes. Samples were processed (thawed, modulated, fixed, permeabilized, and incubated with antibodies to both surface and intracellular proteins) as previously described (Kornblau, Minden et al., Dynamic single-cell network profiles in acute myelogenous leukemia are associated with patient response to standard induction therapy, 2010, Journal/Clin Cancer Res, 16, 14, 3721-3733; Rosen, Minden et al., Functional characterization of FLT3 receptor signaling deregulation in acute myeloid leukemia by single cell network profiling (SCNP), 2010, Journal/PLoS One, 5, 10, e13543). In this study, cellular DNA damage repair (DDR) and apoptosis were measured simultaneously in AML blasts after exposure to chemotherapeutic agents. Antibodies against phosphorylated (p)-H2AX or p-Chk2 were used to measure the DDR to DSB, while simultaneous measurements of cleaved PARP (c-PARP) and amine aqua viability dye were used to quantify apoptosis and cell death. Chemotherapeutics included Ara-C/Dauno (the two drugs currently used in standard AML induction therapy), Gemtuzumab Ozogamicin (GO), and three other agents currently being evaluated in AML clinical trials [Decitabine (DEC), 5-azacytidine (AZA) and Clofarabine (CLO)]. […] Drug-specific incubation times were chosen to analyze both DDR and apoptosis readouts: Ara-C/Dauno (24 hours), GO, CLO, AZA, DEC (48 hours). […] Similarly, apoptosis responses were not observed for DEC until 48 hours and were higher for AZA at 48 hours (data not shown). PI3Kinase/Akt and Raf/Ras pathway activities were assessed using stem cell factor (SCF) induced p-Akt and p-Erk readouts. Data was acquired on an LSRII flow cytometer and leukemic cells were identified by CD45 versus right-angle light-scatter. Metrics for DDR (Log2Fold) and induced apoptosis have been described previously (Rosen, Putta et al., Distinct patterns of DNA damage response and apoptosis correlate with Jak/Stat and PI3kinase response profiles in human acute myelogenous leukemia, 2010, Journal/PLoS One, 5, 8, e12405).

[2] = test system: AML blasts; assay: In vitro drug-induced apoptosis (c-PARP, amine aqua) in primary AML samples (Example 20); type: cell-based, human; conditions: for cells induced to undergo apoptosis: sample COG-06 (MDR+); for cells induced to undergo apoptosis / cells undergoing apoptosis / apoptotic cells: 48 hours, CLO 0.25 μM, AZA 2.5 μM, DEC 0.625 μM; for Apo: 48 hour treatment; for cells undergoing apoptosis: sample COG-07
Procedure: as §1

[3] = test system: AML blasts; assay: SCNP phospho-flow signaling nodes in AML PBMC (Example 2, Study No. 1); type: cell-based, human; conditions: for Mean Value of CRs: CR patients; for Mean Value of CRs / Mean Value of NRs: Study No. 1; for Mean Value of NRs: NR patients
Procedure: Frozen cells are thawed in a 37° C. water bath and gently resuspended in the vial and transferred to the 15 mL conical tube. The 15 mL tube is centrifuged at 930 RPM (200×g) for 8 minutes at room temperature. The supernatant is aspirated and the pellet is gently resuspended in 1 mL media A. The cell suspension is filtered through a 70 um cell strainer into a new 15 mL tube. The cell strainer is rinsed with 1 mL media A and another 12 ml of media A into the 15 mL tube. The cells are mixed into an even suspension. A 20 μL aliquot is immediately removed into a 96-well plate containing 180 μL PBS+4% FBS+CD45 Alexa 700+PI to determine cell count and viability post spin. After the determination, the 15 mL tubes are centrifuged at 930 RPM (200×g) for 8 minutes at room temperature. The supernatant is aspirated and the cell pellet is gently resuspended in 4 mL PBS+4 μL Amine Aqua and incubated for 15 min in a 37° C. incubator. 10 mL RPMI+1% FBS is added to the cell suspension and the tube is inverted to mix the cells. The 15 mL tubes are centrifuged at 930 RPM (200×g) for 8 minutes at room temperature. The cells are resuspended in Media A at the desired cell concentration (1.25×10^6/mL). For samples with low numbers of cells (<18.5×10^6), the cells are resuspended in up to 15 mL media. For samples with high numbers of cells (>18.5×10^6), the volume is raised to 10 mL with media A and the desired volume is transferred to a new 15 mL tube, and the cell concentration is adjusted to 1.25×10^6 cells/ml. 1.6 mL of the above cell suspension (concentration at 1.25×10^6 cells/ml) is transferred into wells of a multi-well plate. From this plate, 80 ul is dispensed into each well of a subsequent plate. The plates are covered with a lid (Nunc) and placed in a 37° C. incubator for 2 hours to rest.
A concentration for each stimulant that is five folds more (5×) than the final concentration is prepared using Media A as diluent. 5× stimuli are arrayed into wells of a standard 96 well v-bottom plate that correspond to the wells on the plate with cells to be stimulated.
Adding the stimulant: The cell plate(s) are taken out of the incubator and placed in a 37° C. water bath next to the pipette apparatus. The cell plate is taken from the water bath and gently swirled to resuspend any settled cells. With pipettor, the stimulant is dispensed into the cell plate and vortexed at “7” for 5 seconds. The deep well plate is put back into the water bath.
The plate is covered with foil sealer and incubated in a 37° C. water bath for 10 minutes. The plate is spun for 6 minutes at 2000 rpm at room temperature. The cells are aspirated using a 96 well plate aspirator (VP Scientific). The plate is vortexed to resuspend cell pellets in the residual volume. The pellet is ensured to be dispersed before the Methanol step (see cell permeabilization) or clumping will occur.
Cell Permeabilization: Permeability agent, for example methanol, is added slowly and while the plate is vortexing. To do this, the cell plate is placed on titer plate shaker and made sure it is secure. The plate is set to shake using the highest setting. A pipetter is used to add 0.6 mls of 100% methanol to the plate wells. The plate(s) are put on ice until this step has been completed for all plates. Plates are covered with a foil seal using the plate roller to achieve a tight fit. At this stage the plates can be stored at −80° C.
Cells are thawed if frozen. Cells are pelleted at 2000 rpm 5 minutes. Supernatant is aspirated with vacuum aspirator. Plate is vortexed on a “plate vortex” for 5-10 seconds. Cells are washed with 1 mL FACS buffer. Repeat the spin, aspirate and vortex steps as above. 50 μL of FACS/stain buffer with the desired, previously optimized, antibody cocktail is added to two rows of cells at a time and agitate the plate. The plate is covered and incubated in a shaker for 30 minutes at room temperature (RT). During this incubation, the compensation plate is prepared.

[4] = test system: AML blasts; assay: SCNP signaling and apoptosis nodes in AML BMMC (Example 4, Study No. 2); type: cell-based, human
[5] = cited from earlier work
[6] = Fold metric, Study No. 1, CRp patient included in NR group
[7] = Total Phospho metric, Study No. 1, CRp patient included in NR group
[8] = read-out p-CREB, metric TotalPhospho
[9] = read-out p-S6, metric TotalPhospho
[10] = Fold metric, all patients, Study No. 2
[11] = Study No.2, patients less than 60 years old
[12] = Study No.2, patients with De Novo AML
[13] = read-out p-Stat3, metric TotalPhospho

Molecule: GO: recombinant humanized IgG4, kappa antibody conjugated with a cytotoxic antitumor antibiotic, calicheamicin
- timing of induced DNA damage (pH2AX) relative to apoptosis [1]: before apoptosis

Molecule: C/C=C/C[C@@H](C)C(=O)[C@H]1C(=O)N[C@@H](C(C)C)C(=O)N(C)CC(=O)N(C)[C@@H](CC(C)C)C(=O)N[C@@H](C(C)C)C(=O)N(C)[C@@H](CC(C)C)C(=O)N[C@@H](C)C(=O)N[C@H](C)C(=O)N(C)[C@@H](CC(C)C)C(=O)N(C)[C@@H](CC(C)C)C(=O)N(C)[C@@H](C(C)C)C(=O)N1C [PSC833]
- effect of co-treatment on GO-induced apoptosis ([2]; sample COG-06, resistant to Ara-C/Dauno and GO, co-treatment with GO): substantially sensitized the leukemic cells to GO-induced apoptosis

Molecule: Nc1ncn([C@@H]2O[C@H](CO)[C@@H](O)[C@H]2O)c(=O)n1 [AZA, 5-azacytidine]
- cells induced to undergo apoptosis [2]: 77.5%
- Apo ([2]; sample COG-06): + (For Apo, “+” signifies induced apoptosis >50%.)
- cells undergoing apoptosis [2]: 32%
- Apo ([2]; sample COG-09): + (For Apo, “+” signifies induced apoptosis >50%.)
- apoptotic cells ([2]; sample COG-09): 57%
- timing of induced DNA damage (pH2AX) relative to apoptosis [1]: coincident with apoptosis

Molecule: Nc1ncn([C@H]2C[C@H](O)[C@@H](CO)O2)c(=O)n1 [DEC]
- cells induced to undergo apoptosis [2]: 55.8%
- Apo ([2]; sample COG-06): + (For Apo, “+” signifies induced apoptosis >50%.)
- cells undergoing apoptosis [2]: 29%
- apoptotic cells ([2]; sample COG-09): 5%

Molecule: C/C=C(/C)C(=O)O[C@H]1C(C)=C2[C@H]([C@@H]1OC(=O)CCCCCCC)[C@@](C)(OC(C)=O)C[C@H](OC(=O)CCC)[C@@]1(O)[C@H]2OC(=O)[C@@]1(C)O [Thapsigargin, reference compound]
- Mean Value of CRs, p-S6 [3, 6]: 0.03
- Mean Value of NRs, p-S6 [3, 6]: 0.31
- Mean Value of CRs, p-CREB [3, 7]: 1.79
- Mean Value of CRs, p-S6 [3, 7]: 0.31
- Mean Value of NRs, p-CREB [3, 7]: 2.77
- Mean Value of NRs, p-S6 [3, 7]: 0.67
- Mean Value of CRs [3, 8]: 1.90
- Mean Value of NRs [3, 8]: 2.76
- Mean Value of CRs ([3]; read-out p-S6, metric Fold): 0.04
- Mean Value of NRs ([3]; read-out p-S6, metric Fold): 0.32
- Mean Value of CRs [3, 9]: 0.31
- Mean Value of NRs [3, 9]: 0.68
- Mean Value of CRs, p-Erk [4, 10]: 1.22
- Mean Value of NRs, p-Erk [4, 10]: 0.36
- Mean Value of CRs, p-CREB TotalPhospho [4, 11]: 2.83
- Mean Value of CRs, p-Erk Fold [4, 11]: 1.28
- Mean Value of NRs, p-CREB TotalPhospho [4, 11]: 3.71
- Mean Value of NRs, p-Erk Fold [4, 11]: 0.40
- Mean Value of CRs, p-Erk Fold [4, 12]: 1.28
- Mean Value of NRs, p-Erk Fold [4, 12]: 0.27

Molecule: Nc1nc(Cl)nc2c1ncn2[C@@H]1O[C@H](CO)[C@@H](O)[C@@H]1F [CLO]
- cells induced to undergo apoptosis [2]: 81%
- Apo ([2]; sample COG-06): + (For Apo, “+” signifies induced apoptosis >50%.)
- cells undergoing apoptosis [2]: 20%
- apoptotic cells ([2]; sample COG-09): 13%
- timing of induced DNA damage (pH2AX) relative to apoptosis [1]: before apoptosis
- DNA damage response (DDR) ([1]; sample COG-06): robust DDR
- DDR ([1]; sample COG-06): + (For DDR, “+” signifies Log2Fold >0.5 (in live cPARP- cells).)
- DNA damage response (DDR) ([1]; sample COG-07): defective DDR
- DNA damage response (DDR) ([1]; sample COG-09): robust DDR
- DDR ([1]; sample COG-09): + (For DDR, “+” signifies Log2Fold >0.5 (in live cPARP- cells).)

Molecule: COc1cccc2c1C(=O)c1c(O)c3c(c(O)c1C2=O)C[C@@](O)(C(C)=O)C[C@@H]3O[C@H]1C[C@H](N)[C@H](O)[C@H](C)O1 [Daunorubicin]
- peak plasma concentration ([5]; Daunorubicin at 25 mg/m2): 50 ng/mL
- peak plasma concentration ([5]; Daunorubicin at 50 mg/m2): 200 ng/mL

Molecule: Nc1ccn([C@@H]2O[C@H](CO)[C@@H](O)[C@@H]2O)c(=O)n1 [Cytarabine, 1β-arabinofuranosylcytosine]
- peak plasma concentration ([5]; high dose Cytarabine, 3 g/m2): 2 µM
- peak plasma concentration ([5]; standard dose of Cytarabine, 100 mg/m2): approximately 40 nM

B1: IFNg: cytokine modulator of Jak/Stat pathway (protein, UniProt P01579 24-161, looked up)
Interferon gamma: QDPYVKEAENLKKYFNAGHSDVADNGTLFLGILKNWKEESDRKIMQSQIVSFYFKLFKNFKDDQSIQKSVETIKEDMNVKFFNSNKKKRDDFEKLTNYSVTDLNVQRKAIHELIQVMAELSPAAKTGKRKRSQMLFRG
- Mean Value of CRs, p-Stat1 [3, 6]: 0.45
- Mean Value of NRs, p-Stat1 [3, 6]: 0.91
- Mean Value of CRs, p-Stat1 [3, 7]: 0.67
- Mean Value of CRs, p-Stat3 [3, 7]: 0.68
- Mean Value of CRs, p-Stat5 [3, 7]: 1.62
- Mean Value of NRs, p-Stat1 [3, 7]: 1.27
- Mean Value of NRs, p-Stat3 [3, 7]: 1.3
- Mean Value of NRs, p-Stat5 [3, 7]: 2.35
- Mean Value of CRs ([3]; read-out p-Stat1, metric Fold): 0.53
- Mean Value of NRs ([3]; read-out p-Stat1, metric Fold): 0.90
- Mean Value of CRs [3, 13]: 0.74
- Mean Value of NRs [3, 13]: 1.30
- Mean Value of CRs, p-Stag [4, 10]: −0.02
- Mean Value of NRs, p-Stag [4, 10]: 0.2
- Mean Value of CRs, p-Stat1 Fold [4, 11]: 1.35
- Mean Value of CRs, p-Stat1 TotalPhospho [4, 11]: 2.40
- Mean Value of CRs, p-Stat3 TotalPhospho [4, 11]: 1.60
- Mean Value of CRs, p-Stat5 Fold [4, 11]: 0.68
- Mean Value of NRs, p-Stat1 Fold [4, 11]: 2.96
- Mean Value of NRs, p-Stat1 TotalPhospho [4, 11]: 4.13
- Mean Value of NRs, p-Stat3 TotalPhospho [4, 11]: 2.71
- Mean Value of NRs, p-Stat5 Fold [4, 11]: 1.67
- Mean Value of CRs, p-Stat3 Fold [4, 12]: −0.04
- Mean Value of CRs, p-Stat3 TotalPhospho [4, 12]: 1.59
- Mean Value of NRs, p-Stat3 Fold [4, 12]: 0.24
- Mean Value of NRs, p-Stat3 TotalPhospho [4, 12]: 2.48
